Results published in patent publication US20170035845A1, “Compositions and Methods for Inhibiting Pro-Inflammatory Cytokine Gene Expression” (The Regents of the University of California, priority 2015, published 2017).

How the values were obtained:
whole blood = assay: TNF-α secretion by E. coli stimulated whole blood; type: cell-based
primary human monocytes [1] = assay: Immunoblot analyses of primary human monocyte extracts; type: cell-based
Description: EDTA-anticoagulated blood was incubated with human monocyte enrichment cocktail (Stem Cell Technologies, Vancouver, BC, Canada) for 20 minutes and layered on Ficoll Paque™ in a Sepmate™ 50 tube (Stem Cell Tech). The cells were centrifuged at 1200×g for 10 minutes and the monocyte containing layer of cells was isolated, washed with PBS containing 2% HI FBS and 1 mM EDTA.
(§1) Differentiated THP-1 cells (˜8×10^5 cells/2.5 ml medium) were starved in complete medium containing […] for 1 day as above, and fresh 2.5 ml RPMI 1640+1% FBS+P/S was added for 2 hours. For experiments with fresh monocytes, cells (>80% CD14+) were resuspended (˜10^6 cells/nil) in monocyte attachment medium (Promocell, Heidelberg, Germany) in wells of a 12 well plate for 2 hours at 37° C. in 5% CO2. The cells were then washed two times with RPMI medium containing 1% HI FBS and suspended overnight in RPMI medium containing 1% HI FBS. Cells were stimulated with agonists with or without RTD-1 (SEQ ID NO. 1) as described in the figure legends after which cells were washed with PBS and extracts were prepared in cell lysis buffer+1 mM PMSF. Protein content was determined using the BCA method (BioRad, San Diego, Calif.) and extracts resolved on SDS-tricine gels and transferred to nitrocellulose membrane. The membranes were probed with the indicated antibodies and developed using anti-mouse or anti-rabbit HRP conjugated secondary antibodies and detected by chemiluminescence. A phosphoprotein antibody array (Phospho-MAPK™; R&D systems Minneapolis, Minn.) was used to analyze activation of phosphoprotein kinases. Differentiated THP-1 cells (1.6×10^6 cells) were treated with 100 ng/ml LPS, 10 μg/ml RTD-1 (SEQ ID NO. 1), 100 ng/ml LPS+10 μg/ml RTD-1, or vehicle for 30 minutes. Arrays were probed with 200 μg of cell extract protein and chemiluminescence of spots from arrays or bands from western blotting was quantified using NIH ImageJ software, background subtracted, normalized and plotted.

[2] = test system: peripheral blood leukocytes; assay: Cytokine secretion by peripheral blood leukocytes stimulated with TLR agonists; type: cell-based, human; details: stimulated by agonists of TLRs 2, 4, 5, and 8
THP-1 cells [3] = assay: Phospho-MAPK phosphoprotein antibody array, THP-1 cells; type: cell-based, human
Description: as §1

primary human monocytes [4] = assay: Cytokine secretion ELISA, LPS-stimulated primary human monocytes; type: cell-based; details: LPS 20 ng/ml, 4 hours, RTD-1 10 μg/ml
Description: (§2) THP-1 monocytes (ATCC, Manassas, Va.) were cultured in RPMI 1640+10% FBS and penicillin/streptomycin (P/S). THP-1 Dual cells (Invivogen, San Diego, Calif.) which express the NF-κB reporter, secreted embryonic alkaline phosphatase (SEAP), were grown in RPMI 1640+10% HI-FBS and antibiotics. THP-1 cell differentiation was induced by treatment of cells (˜3.3×10^5 cells/ml) with 100 nM PMA and cultured for 2 days. HEK-Blue™ hTLR9 cells (Invivogen) were grown in DMEM medium containing 10% HI-FBS, P/S and normocin. Cells were cultured at 37° C. in 5% CO2. Cytokine assays. PMA-differentiated THP-1 cells (˜8×10^5 cells) cultured in 6-well plates were washed twice with complete medium and grown in fresh medium containing 1% FBS for 24 hours. Cells were washed twice with fresh medium and incubated for 2 hours prior to further manipulation. Cells were stimulated with 100 ng/ml LPS in the presence or absence of 10 μg/ml RTD-1 or vehicle (0.01% acetic acid) for 2 hours. In some experiments, cells were first incubated for 1 hour with 10 μg/ml of marimastat or vehicle (DMSO), after which LPS and/or RTD-1 were added and incubated for 2 hours as above. Peripheral blood CD14+ monocytes (Lonza, Walkersville, Md.) were thawed, rinsed with RPMI 1640 containing 10% HI FBS, P/S and normocin and then resuspended in RPMI 1640 containing 1% HI FBS plus antibiotics as above (10^6 cells/nil) for 2 hours. The cells were then stimulated for 4 hours as described in the legend. Medium was collected, clarified by centrifugation first at 250×g for 8 minutes and then at 5000×g for 5 minutes. TNF-α, IL-1β and IL-8 were quantified by ELISA (Life Technologies, Carlsbad, Calif.).

THP-1 macrophages = assay: Cytokine secretion ELISA, LPS-stimulated differentiated THP-1 cells; type: cell-based, human
Description: as §2

THP-1 cells [5] = assay: Immunoblot analyses of THP-1 cell extracts; type: cell-based, human
Description: as §1

[6] = LPS 100 ng/ml, RTD-1 10 μg/ml, 30 minutes
[7] = LPS 100 ng/ml + RTD-1 10 μg/ml, 30 minutes
[8] = LPS 100 ng/ml, 2 hours, RTD-1 10 μg/ml, THP-1 macrophages
[9] = LPS 100 ng/ml, comparison RTD-1 versus marimastat

RTD-1: rhesus theta-defensin 1, macrocyclic tri-disulfide θ-defensin peptide, SEQ ID NO. 1, synthetic (cyclo(GFCRCLCRRGVCRCICTR); disulfide (positions not given here); not fully specified (bridges); also: three disulfides, places not given here; listed as Macaca mulatta)
speed of blockade of TNF-α secretion (whole blood): extremely rapid | degradation of IκBα in LPS stimulated monocytes (primary human monocytes [1]; [6]): reduced | p38 MAP kinase phosphorylation in LPS stimulated monocytes (primary human monocytes [1]; [6]): inhibited | degradation of IκBα (primary human monocytes [1]; RTD-1 alone, monocytes): did not induce | phosphorylation of Akt (primary human monocytes [1]; monocytes treated with LPS and RTD-1 or RTD-1 alone, compared to control cells): increased phosphorylation | p38 MAP kinase phosphorylation (primary human monocytes [1]; peptide alone, monocytes): no effect | secretion of several inflammatory cytokines [2]: suppressed secretion | LPS-induced phosphorylation of CREB (THP-1 cells [3]; [7]): to baseline levels | LPS-induced phosphorylation of ERK2 (THP-1 cells [3]; [7]): to baseline levels | LPS-induced phosphorylation of H5P27 (THP-1 cells [3]; [7]): to baseline levels | LPS-induced phosphorylation of JNK2 (THP-1 cells [3]; [7]): to baseline levels | LPS-induced phosphorylation of p38α (THP-1 cells [3]; [7]): to baseline levels | LPS-induced phosphorylation of p38γ (THP-1 cells [3]; [7]): to baseline levels | phosphorylation of CREB, ERK2, H5P27, JNK2, p38α and p38γ (THP-1 cells [3]; RTD-1 alone): did not suppress | phosphorylation of Akt1 (THP-1 cells [3]; RTD-1 alone or in combination with LPS): selectively stimulated | baseline phosphorylation of other kinase targets (THP-1 cells [3]; RTD-1 alone, otherwise untreated cells): did not increase | binding to LPS (Binding to LPS): binds inefficiently | suppression of secretion of IL-1β (primary human monocytes [4]): > 90% | suppression of secretion of IL-8 (primary human monocytes [4]): > 90% | suppression of secretion of TNF-α (primary human monocytes [4]): > 90% | suppression of secretion of IL-1β (THP-1 macrophages; [8]): > 90% | suppression of secretion of IL-8 (THP-1 macrophages; [8]): > 90% | suppression of secretion of TNF-α (THP-1 macrophages; [8]): > 90% | release of TNF-α by LPS-stimulated THP-1 cells (THP-1 macrophages; [9]): blocked both cytokines effectively | secretion of IL-1β by LPS-stimulated THP-1 cells (THP-1 macrophages; [9]): blocked both cytokines effectively | effect on THP-1 cytokine secretion (THP-1 macrophages; RTD-1 alone, no LPS): no effect | JNK1/2 kinase phosphorylation (THP-1 cells [5]; LPS 100 ng/ml, RTD-1 10 μg/ml): inhibition | degradation of IκBα in LPS stimulated macrophages (THP-1 cells [5]; LPS 100 ng/ml, RTD-1 10 μg/ml): effective in blocking | p38 MAP kinase phosphorylation (THP-1 cells [5]; LPS 100 ng/ml, RTD-1 10 μg/ml): inhibition | P-Akt levels remained elevated (THP-1 cells [5]; RTD-1 10 μg/ml alone, for at least 4 hours): ~2.5 fold | increase in P-Akt (THP-1 cells [5]; RTD-1 10 μg/ml alone, within 10 minutes of peptide treatment): 6.5 fold | IκBα levels and phosphorylation of p38 MAP and JNK1/2 kinases (THP-1 cells [5]; RTD-1 alone): no effect
